Our source for the T/C % values is patent US8784818B2, “Anti-VEGFR-3 antibody compositions” (ImClone LLC, priority 2010, dated 2014).

Each structure is given as a SMILES string.

For one assay, the system named is CAL27 tumors. Put plainly: CAL27 squamous cell carcinoma xenograft model. The class given is in vivo, mice. The settings on record: versus USP saline; Antibody 2 40 mg/kg 3 days per week; cisplatin 7 mg/kg q7d; through Day 61. The protocol:
In order to test for activity of anti-VEGFR-3 antibodies in head and neck cancer, the CAL27 xenograft model is used. CAL27 cell suspension, at 1×10^7 cells/mouse, is injected s.c. into the left flank of 60 female athymic mice. When tumors reach ˜180 mm^3, eight days after cell implantation, the mice are randomized and divided into four treatment groups (n=12): 1.) USP saline control, 0.5 ml i.p., 3 days per week 2.) Antibody 2 at 40 mg/kg, 3 days per week 3.) cisplatin at 7 mg/kg, q7d 4.) Antibody 2 at 40 mg/kg, 3 days per week+cisplatin at 7 mg/kg, q7d.
Tumor measurements are recorded twice weekly; RM ANOVA through Day 61 is used to compare tumor growth among the treatment groups. Chi Squared tests are used to test for statistical significance in the number of tumor regressions among the treatment groups.

The next assay concerns NCI-H292 tumor. Put plainly: NCI-H292 lung cancer xenograft model. Type of assay: in vivo, mice. To be noted: versus control group; Antibody 2 40 mg/kg 3 times per week i.p.; Docetaxel 12 mg/kg q7d; through Day 26. The protocol:
In order to test for activity of anti-VEGFR-3 antibodies in lung cancer, the NCI-H292 xenograft model is used. Nu/nu mice (female, 7-8 weeks of age) are injected subcutaneously with 2×10^6 NCI-H292 cells/mouse. When tumors reach approximately 300 mm^3, mice are randomized by tumor size into the following treatment groups (n=15): 1) USP saline at 10 μl/g, 3 times per week, i.p., starting on day 2. 2) Antibody 2 at 40 mg/kg, 3 times per week, i.p., starting day 2. 3) Docetaxel at 12 mg/kg, q7d, starting day 1. 4) Docetaxel at 12 mg/kg, q7d, starting day 1 plus Antibody 2 at 40 mg/kg, 3 times per week, starting day 2.
Tumor volumes are measured approximately twice a week and body weights are recorded at least twice a week for the duration of the study. At sacrifice, mice are euthanized by CO2 asphyxiation. The T/C % is calculated for each treatment group as the ratio of the relative tumor volume in the experimental groups versus the control group. Tumor growth and body weights are compared to the control group by repeated measures ANOVA through Day 26.

For `N.N.[Cl][Pt][Cl]` [cisplatin], the T/C % with CAL27 tumors is 39%.
In the assay on NCI-H292 tumor, `CC(=O)O[C@@]12CO[C@@H]1C[C@H](O)[C@@]1(C)C(=O)[C@H](O)C3=C(C)[C@@H](OC(=O)[C@H](O)[C@@H](NC(=O)OC(C)(C)C)c4ccccc4)C[C@@](O)([C@@H](OC(=O)c4ccccc4)[C@H]21)C3(C)C` [Docetaxel] showed a T/C % of 49%.
